# “Also recorded” adds a separate entry of the source.
# Assays:
# AD brain tissue = AD brain tissue (Homo sapiens, UniProt P05067); experiment: Competitive binding in AD brain tissue vs [3H]PiB; conditions: for Ki: AD brain tissue, radioligand [3H]PiB; for max % Inh_PiB: maximal inhibition of [3H]PiB binding in AD brain tissue
# Method: The binding potency for Abeta was determined using [^3H]PIB for these new compounds (FIG. 5B).
# If the Ki value is smaller, these compounds are potent for AD brain tissue binding and are not selective for alpha-synuclein over abeta, or PD over AD.
# alpha-synuclein fibrils = alpha-synuclein fibrils (Homo sapiens, UniProt P37840); experiment: Competitive binding to alpha-synuclein fibrils vs [3H]BF2846 (site 9); conditions: for Ki (nM), in a-syn fibrils v.s. [3H]BF2846 / Ki: alpha-synuclein fibrils, radioligand [3H]BF2846, binding site 9; for Ki: read-out: Ki (nM), in a-syn fibrils v.s. [3H]BF2846; for max % inh_site9: maximal inhibition of [3H]BF2846 binding to alpha-synuclein fibrils
# [1] = PET studies in the brains of nonhuman primates (Example 3); format: in vivo
# From the text: A PET study in nonhuman primates found uptake of [^11C]TZ61-84 (FIG. 3C).
# Another PET study of [^18F]TZ80-156 and [^18F]TZ83-41 in nonhuman primates also found uptake (FIG. 4A).
# A further PET study also found uptake of several additional compounds, including [^18F]TZ80-156 and [^18F]TZ83-41 (FIG. 4B).
# [2] = Biodistribution study in rats; format: in vivo, Sprague Dawley (SD) rats
# From the text: (§1) The radiosynthesis of [^18F]TZ83-41 was accomplished by a two-step procedure with [^18F]fluoroethyl ptoluenesulfonate as a prosthetic group, followed by O-alkylation to the quinolinyl-containing phenol group. [^18F]TZ80-156 was synthesized starting from the allylic bromide precursor via nucleophilic halogen exchange (halex) reaction with [^18F]fluoride, followed by deprotection of the N-Boc amine with trifluoroacetic acid. Homologous competitive binding assays with α-synuclein fibrils amplified from PD tissue were used to determine the direct binding affinity of the two radioligands. The biodistribution study was performed in male Sprague Dawley (SD) rats at four time points (5, 30, 60 min and 120 min) after intravenous injection of the radiotracer. The uptake of radioactivity was calculated as percentage injected dose per gram (% ID/gram). Both radiotracers were evaluated with microPET imaging using a Focus 220 microPET scanner to collect dynamic scans after intravenous injection into male macaques (NHP) (FIGS. 1A-1C).
# [3] = target: T1, α-synuclein fibrils amplified from PD tissue (Homo sapiens, UniProt P37840); experiment: Direct radioligand (homologous competitive) binding assay; conditions: read-out: binding affinity for α-synuclein fibrils
# T1 construct: from tissue; host or cells: fibrils amplified from PD tissue (Banner amplified fibrils are mentioned)
# From the text: as §1
# (§2) The radioligands [^18F]TZ83-41 and [^18F]TZ80-156 were successfully produced in 17±3% (n=2) and 25±5% (n=2) radiochemical yield (RCY) respectively with high molar activity (>37 GBq/μmol) and high radiochemical purity (>99%), at the end of synthesis (EOS).
# [4] = system: Alzheimer's disease brain tissue homogenate; experiment: Direct radioligand binding to Alzheimer's disease brain tissue homogenate
# From the text: as §2
# [5] = MicroPET imaging of the macaque (NHP) brain; format: in vivo; conditions: for crossing of the blood brain barrier: NHP; for brain standardized uptake value (SUV) maximum: NHP brain, intravenous; for brain standardized uptake value (SUV) maximum / washout from the NHP brain: microPET
# From the text: as §1
# [6] = NHP plasma radiometabolite study (column-switching HPLC); format: in vivo, Monkey; conditions: for Peak B (%) (parental tracer): monkey plasma
# From the text: Monkey arterial/venous blood samples were collected at various intervals during the PET scans to measure the radio metabolite profile using the column-switching HPLC system equipped with an Oasis HLB online capture column (80 Å, 15 μm, 3.9 mm×20 mm, Waters 186001414) with Universal Guard Column holder (WAT046910, Waters) and a Agilent ZORBAX Eclipse XDB-C18 analytical column (5 μm, 250×4.6 mm, Part No. 990967-902), following a published protocol (Hilton J, et al., Nucl Med Biol. 2000 August; 27(6):627-30; Cai Z, et al., ACS Chem Neurosci. 2020 Feb. 19; 11(4):592-603).
# Briefly, blood samples (vary with volume, 4-8 mL) were collected at 5, 15, 30, 60, 90 min post-injection of radiotracer. The whole blood was centrifuged at RCF 1300 g for 5 min to separate the blood cells and obtain plasma. Clean supernatant plasma was collected and added into solid urea to eliminate competitive protein binding and to allow complete backflush of the parent compound and metabolites from the capture column to analytical column. Typically, 3.2 mL of plasma is added to 2.12 g of urea to yield a final concentration of 8 M urea and a final volume of about 4.5 mL. The plasma-urea mix was then filtered through a Whatman® GD/X syringe filters (pore size 1 μm, diam. 13 mm, WHA68841310, Sigma, USA) and injected into a 5 mL HPLC loop concatenating with the capture column, which eluted with 1% acetonitrile in ammonium formate (0.1 M, pH=4.5) at 2 mL/min for 4 min. The enriched radioactivity in the short capture column was reverse flowed into an analytical C18 column with 60% acetonitrile and 40% ammonium formate (0.1 M, pH=4.5) at a flow rate of 1.0 mL/min for 25 min.
# The radioactive peak B is the parental [^18F]TZ83-41 tracer with retention time of 14.3 min; one radiometabolite is peak A at 6.8 min (FIG. 2A and FIG. 2B).
# AD brain tissue, sequence (P05067 whole entry): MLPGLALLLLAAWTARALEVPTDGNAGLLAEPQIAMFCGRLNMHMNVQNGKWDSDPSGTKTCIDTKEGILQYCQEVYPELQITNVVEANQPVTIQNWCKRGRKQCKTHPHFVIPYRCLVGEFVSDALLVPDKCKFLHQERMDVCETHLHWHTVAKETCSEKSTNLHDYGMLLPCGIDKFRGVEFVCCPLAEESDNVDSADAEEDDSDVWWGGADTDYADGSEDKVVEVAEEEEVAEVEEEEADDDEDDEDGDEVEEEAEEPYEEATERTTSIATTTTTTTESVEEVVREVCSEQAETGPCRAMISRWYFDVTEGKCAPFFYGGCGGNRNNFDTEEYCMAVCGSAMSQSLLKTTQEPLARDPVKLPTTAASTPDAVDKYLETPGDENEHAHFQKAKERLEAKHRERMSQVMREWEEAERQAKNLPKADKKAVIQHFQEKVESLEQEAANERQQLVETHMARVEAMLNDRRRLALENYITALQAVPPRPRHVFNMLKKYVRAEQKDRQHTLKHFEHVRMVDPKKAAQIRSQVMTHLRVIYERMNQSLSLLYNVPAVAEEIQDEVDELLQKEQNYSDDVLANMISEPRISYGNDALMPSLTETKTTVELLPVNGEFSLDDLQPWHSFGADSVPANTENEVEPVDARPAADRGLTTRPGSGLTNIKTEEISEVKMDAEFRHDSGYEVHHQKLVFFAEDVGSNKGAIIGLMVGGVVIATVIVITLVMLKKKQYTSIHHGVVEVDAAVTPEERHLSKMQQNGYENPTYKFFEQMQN
Ki (AD brain tissue) [nM],max % Inh_PiB (AD brain tissue) [%],Ki (alpha-synuclein fibrils) [nM],max % inh_site9 (alpha-synuclein fibrils),Compound,also measured
90 ± 155,90,–,–,COc1ccc2c(c1)CCC(Nc1cc(C)n[nH]1)=N2 [TZ88-7],"Ki (nM), in a-syn fibrils v.s. [3H]BF2846 (alpha-synuclein fibrils): None"
7.1 ± 10.5,100,55.6,40%,COc1ccc2nc(Nc3cc(-c4ccccc4)n[nH]3)ccc2c1 [TZ88-5],–
36 ± 30,30,3.07,50%,COc1ccc(Nc2ccc3ccc(N)cc3n2)cn1 [TZ64-87],–
158 ± 36,80,14.3 ± 25.4,100%,CCc1ccc(Nc2ccc3cc(OCCN4CCCCC4)ccc3n2)cn1 [TZ80-30],–
25.2 ± 21.7,80,30.4 ± 42.1,70%,COc1ccc(Nc2ccc3cc(OCc4cccnc4)ccc3n2)cn1.Cl [TZ80-66-B],–
72 ± 56,60,16.6 ± 22.6,70%,COc1ccc(Nc2ccc3cc(OCc4ccncc4)ccc3n2)cn1 [TZ80-42],–
15 ± 23.5,100,32.8 ± 43.8,100%,COc1cccc(COc2ccc3nc(Nc4ccc(OC)nc4)ccc3c2)c1 [TZ80-77],–
6.6 ± 2.7,30,4.6,20%,COc1ccc(Nc2nc3ccccc3cc2N)cn1 [TZ64-73],–
3.1 ± 2.3,100,46.2 ± 39.2,Shallow,COc1ccc2cc(Nc3ccc(OC)nc3)ncc2c1 [TZ90-4],–
53 ± 34,50,1.4,70%,COc1ccc2nc(Nc3ccc(C=O)o3)ccc2c1 [TZ64-91],–
> 1000,–,–,–,COc1ccc2nc(Nc3ccc(NC(C)=O)nc3)ccc2c1 [TZ88-27],"Ki (nM), in a-syn fibrils v.s. [3H]BF2846 (alpha-synuclein fibrils): None"
0.19,30,129 ± 77,–,COc1ccc2nc(/C=C/c3nc4ccc(OC)cc4s3)ccc2c1 [TZ90-21],–
99 ± 90,70,22.9 ± 28.2,60%,COc1ccc(Nc2ccc3cc(OC(F)F)ccc3n2)cn1 [TZ80-37],–
354 ± 407,40,13.3 ± 26.1,60%,CCOc1ccc(Nc2ccc3cc(OCCF)ccc3n2)cn1.Cl [TZ83-40],–
> 1000,–,15 ± 12.4,100%,CSc1ccc(Nc2ccc3cc(OC/C=C/I)ccc3n2)cn1 [TZ80-106],–
50 ± 36,80,24.1 ± 39.7,100%,COc1ccc2nc(Nc3nc4ccc(N(C)C)cc4s3)ccc2c1 [TZ80-83],–

Ki (AD brain tissue) [nM],max % Inh_PiB (AD brain tissue) [%],Ki (alpha-synuclein fibrils) [nM],max % inh_site9 (alpha-synuclein fibrils),Compound,also measured
–,–,–,–,COc1ccc(Nc2ccc3cc(OC/C=C/C[18F])ccc3n2)cn1 [[^18F]TZ80-156],brain uptake in PET study [1]: found uptake; bone uptake ([2]; 5 min): 0.45; brain uptake ([2]; 5 min): 0.86 % ID/gram; bone uptake ([2]; 30 min): 2.18; brain uptake ([2]; 30 min): 0.25 % ID/gram; brain uptake ([2]; 60 min): 0.16 % ID/gram; bone uptake ([2]; 120 min): 3.09; defluorination ([2]; judged from bone uptake): Significant defluorination; Kd [3]: 35 nM; binding to Alzheimer's disease brain tissue homogenate [4]: little to no binding; crossing of the blood brain barrier [5]: crossed the blood brain barrier; brain standardized uptake value (SUV) maximum [5]: ~2.0; washout from the NHP brain [5]: favorable washout rate; also recorded: favorable washout kinetics
362 ± 372,40,12.5,60%,CCCOc1ccc(Nc2ccc3cc(OCCF)ccc3n2)cn1 [TZ83-41],–
10.8 ± 8.3,100,34 ± 75.3,–,COc1ccc(Nc2ccc3cc(OCCF)ccc3n2)cn1 [TZ90-3],–
36 ± 37,30,1.56,20%,COc1ccc(Nc2ccc3cc(O)ccc3n2)cn1 [TZ61-23],–
108 ± 73,100,17.9 ± 31.7,70%,COc1ccc2nc(Nc3ccnc(OC)c3)ccc2c1.Cl [TZ80-59-B],–
1.6 ± 0.6,100,–,–,COc1ccc2nc(Nc3ccc(N4CCOCC4)nc3)ccc2c1 [TZ88-18],"Ki (nM), in a-syn fibrils v.s. [3H]BF2846 (alpha-synuclein fibrils): None"
142 ± 103,20,30.1,60%,CC(C)Oc1ccc(Nc2ccc3cc(OCCF)ccc3n2)cn1 [TZ83-39],–
2 ± 2.6,100,–,Shallow,COc1ccc(Nc2ccc3cc(OC)ccc3n2)cc1 [TZ90-8],–
> 1000,–,14.9 ± 19.1,100%,COc1ccc(Nc2ccc3cc(OC/C=C/CF)ccc3n2)cn1 [TZ80-156],–
46 ± 78,70,–,–,COc1ccc2nc(Nc3ccc(-n4cccn4)nc3)ccc2c1 [TZ88-11],"Ki (nM), in a-syn fibrils v.s. [3H]BF2846 (alpha-synuclein fibrils): None"
> 1000,–,26.1,70%,COc1ccc(Nc2ccc3cc(OCCF)ccc3n2)cn1.Cl [TZ80-55],–
–,–,–,–,CCCOc1ccc(Nc2ccc3cc(OCC[18F])ccc3n2)cn1 [[^18F]TZ83-41],brain uptake in PET study [1]: found uptake; brain uptake ([2]; from 5 to 120 min): 0.71˜0.24 % ID/gram; Kd [3]: 7.6 nM; Peak B (%) (parental tracer) ([6]; 5 min post-injection): 92%; Peak B (%) (parental tracer) ([6]; 15 min post-injection): 69%; Peak B (%) (parental tracer) ([6]; 30 min post-injection): 59%; Peak B (%) (parental tracer) ([6]; 60 min post-injection): 47%; Peak B (%) (parental tracer) ([6]; 90 min post-injection): 38%; lipophilic radiometabolite entering the brain ([6]; nonhuman primate plasma samples post injection): no lipophilic radiometabolite; binding to Alzheimer's disease brain tissue homogenate [4]: little to no binding; crossing of the blood brain barrier [5]: crossed the blood brain barrier; brain standardized uptake value (SUV) maximum [5]: ~2.0; washout from the NHP brain [5]: favorable washout rate; also recorded: favorable washout kinetics; also recorded: suitable brain washout pharmacokinetics; brain uptake (in words) ([5]; nonhuman primate brain imaging): high brain uptake
> 1000,–,18.7,50%,COc1ccc(Nc2ccc3cc(Br)ccc3n2)cn1 [TZ64-105],–
5.8 ± 4.3,100,–,–,COc1ccc2nc(Nc3ccc4cn[nH]c4c3)ccc2c1 [TZ88-21],"Ki (nM), in a-syn fibrils v.s. [3H]BF2846 (alpha-synuclein fibrils): None"
13.2 ± 17.2,90,21.5 ± 34,100%,COc1ccc(Nc2ccc3cc(OC/C=C/I)ccc3n2)cn1 [TZ61-84],–

# Source: patent publication US20240358865A1, “QUINOLINYL AND PRIDINYL CONTAINING COMPOUNDS TARGETING ON ALPHA-SYNUCLEIN FOR NEUROLOGICAL DISEASES” (Washington University, priority 2023, published 2024)
